Measured values: ChEMBL document CHEMBL1128868, “A carotane sesquiterpene as a potent modulator of the Maxi-K channel from Arthrinium phaesospermum” (Bioorg Med Chem Lett, 1995)
Calls of active or inactive are those of the source. The rule behind the calls is not given here.

Assays:
Bos taurus = species: Bos taurus; assay: Inhibition of [125I]ChTX binding to Maxi-K channels in bovine aortic sarcolemmal membranes; assay type: cell membranes; details: Aorta
[1] = biological target: Potassium voltage-gated channel subfamily A member 3 (Rattus norvegicus) (UniProt P15384); assay: Inhibition of [125I]ChTX binding to voltage-gated potassium channel in rat brain synaptic plasma membranes; No effect; assay type: cell membranes; details: Membrane
Potassium voltage-gated channel subfamily A member 3 (Rattus norvegicus), sequence (P15384 whole entry): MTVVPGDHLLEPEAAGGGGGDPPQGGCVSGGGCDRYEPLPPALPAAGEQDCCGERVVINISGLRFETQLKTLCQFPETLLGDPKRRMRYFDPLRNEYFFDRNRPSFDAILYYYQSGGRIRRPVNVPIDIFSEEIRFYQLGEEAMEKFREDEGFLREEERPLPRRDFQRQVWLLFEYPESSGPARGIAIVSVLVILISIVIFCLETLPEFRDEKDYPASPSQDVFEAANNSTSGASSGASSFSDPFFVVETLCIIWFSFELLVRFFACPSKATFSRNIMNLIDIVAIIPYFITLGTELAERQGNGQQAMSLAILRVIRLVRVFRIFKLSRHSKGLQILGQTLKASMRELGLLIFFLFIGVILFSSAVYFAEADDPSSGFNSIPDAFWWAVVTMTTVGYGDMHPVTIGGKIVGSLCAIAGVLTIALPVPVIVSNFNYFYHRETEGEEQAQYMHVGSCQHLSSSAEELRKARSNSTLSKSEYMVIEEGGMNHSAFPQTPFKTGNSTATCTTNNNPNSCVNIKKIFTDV

CC1=CC[C@@]2(C)C[C@H](O)[C@@](O)(C(C)C)[C@@H]2CC1
inhibition (Bos taurus): 200 nM | inhibition [1]: inactive
